# According to patent US11021448B2, “1,3-dihydro-1,4-benzodiazepine-2-thiones for the treatment of CNS related diseases” (priority 2016, dated 2021):
# pIC50: −log10 of the molar value.
# Target: T1, hM1 (Homo sapiens, UniProt P11229)
# T1 construct: expressed in transfected cells; host or cells: CHO
# T1 sequence (P11229 1-460): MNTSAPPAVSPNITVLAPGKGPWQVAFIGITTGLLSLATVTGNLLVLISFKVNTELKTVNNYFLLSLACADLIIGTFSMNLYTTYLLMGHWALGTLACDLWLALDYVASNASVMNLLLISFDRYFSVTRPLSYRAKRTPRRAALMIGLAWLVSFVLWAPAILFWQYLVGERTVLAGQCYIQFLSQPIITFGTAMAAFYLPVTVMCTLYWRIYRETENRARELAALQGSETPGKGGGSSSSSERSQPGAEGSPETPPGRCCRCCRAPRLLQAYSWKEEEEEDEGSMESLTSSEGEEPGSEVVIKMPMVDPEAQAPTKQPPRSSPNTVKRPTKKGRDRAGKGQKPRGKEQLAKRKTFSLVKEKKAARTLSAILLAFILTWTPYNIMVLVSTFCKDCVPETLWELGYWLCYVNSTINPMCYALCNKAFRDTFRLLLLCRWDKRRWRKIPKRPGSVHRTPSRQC
# Assay: FLIPR intracellular calcium assay for modulator activity at the muscarinic M1 receptor in CHO human M1 cells
# Assay type: cell-based
# Conditions: not given
# Method: The assay study the effect of several concentrations of test compounds on basal or acetylcholine-stimulated Ca^2+ levels using FLIPR.
# The cell plate and the diluted compounds (1% DMSO final concentration) are placed on the platform of the FLIPR and the door closed. A signal test to check background fluorescence and basal fluorescence signal is performed. Laser intensity is adjusted if necessary. Two minutes preincubation with the diluted test compounds is provide to determine any agonist activity on the M1 receptor by comparison to 30 nM Acetylcholine control. In order to determine any modulator activity the diluted compounds were added to cells and after two minutes preincubation, the EC20 of acetylcholine is added followed by another two minutes preincubation before the measurement of intracellular Ca^2+ with a FLIPR (Molecular Devices).
row,SMILES,pIC50
1,"S=C1Nc2ccc(Cl)cc2C(c2ccccc2)=N[C@@H]1Cc1ccccc1 (single isomer, unassigned) [Example 21]",5.94
2,"S=C1Nc2ccc(Cl)cc2C(c2ccccc2)=N[C@H]1Cc1ccccc1 (single isomer, unassigned) [Example 30]",6.60
3,"CC(C)[C@@H]1N=C(c2ccccn2)c2cc(Br)ccc2NC1=S [Example 2, (3S)-7-bromo-3-propan-2-yl-5-pyridin-2-yl-1,3-dihydro-1,4-benzodiazepine-2-thione]",6.54
4,"S=C1Nc2ccc(Cl)cc2C(c2ccccc2)=N[C@H]1CC1CC1 [Example 3, (3S)-7-chloro-3-(cyclopropylmethyl)-5-phenyl-1,3-dihydro-1,4-benzodiazepine-2-thione]",6.51
5,"CC[C@@H]1N=C(c2ccccc2)c2cc(Cl)ccc2NC1=S [Example 4, (3S)-7-chloro-3-ethyl-5-phenyl-1,3-dihydro-1,4-benzodiazepine-2-thione]",6.99
6,"CCC[C@]1(C)N=C(c2ccccc2)c2cc(Cl)ccc2NC1=S [Example 6, (3S)-7-chloro-3-methyl-5-phenyl-3-propyl-1H-1,4-benzodiazepine-2-thione]",6.98
7,"CCC[C@@H]1N=C(c2ccccc2)c2cc(Cl)ccc2NC1=S [Example 7, (3S)-7-chloro-5-phenyl-3-propyl-1,3-dihydro-1,4-benzodiazepine-2-thione]",6.73
8,"FC(F)(F)C[C@@H]1N=C(c2ccccc2)c2cc(Cl)ccc2NC1=S [Example 8, (3S)-7-chloro-5-phenyl-3-(2,2,2-trifluoroethyl)-1,3-dihydro-1,4-benzodiazepine-2-thione]",6.62
9,"CSCC[C@H]1N=C(c2ccccc2)c2cc(Cl)ccc2NC1=S [Example 9, (3R)-7-chloro-3-(2-methylsulfanylethyl)-5-phenyl-1,3-dihydro-1,4-benzodiazepine-2-thione]",6.30
10,"Fc1ccccc1C1=N[C@@H](C(F)(F)F)C(=S)Nc2ccc(Cl)cc21 [Example 10, (3S)-7-chloro-5-(2-fluorophenyl)-3-(trifluoromethyl)-1,3-dihydro-1,4-benzodiazepine-2-thione]",6.21
11,"Fc1ccccc1C1=N[C@H](C(F)(F)F)C(=S)Nc2ccc(Cl)cc21 [Example 11, (3R)-7-chloro-5-(2-fluorophenyl)-3-(trifluoromethyl)-1,3-dihydro-1,4-benzodiazepine-2-thione]",6.21
12,"CC1N=C(c2ccccc2)c2cc([N+](=O)[O-])ccc2NC1=S (stereo not shown) [Example 12, 3-methyl-7-nitro-5-phenyl-1,3-dihydro-1,4-benzodiazepine-2-thione]",6.14
13,"Cc1ccc2c(c1)C(c1ccccc1F)=N[C@@H](C(C)C)C(=S)N2 [Example 13, (3S)-5-(2-fluorophenyl)-3-isopropyl-7-methyl-1,3-dihydro-1,4-benzodiazepine-2-thione]",7.21
14,"CC(C)C1N=C(c2ccccc2)c2cc(Cl)ccc2NC1=S (stereo not shown) [Example 15, 7-chloro-3-isopropyl-5-phenyl-1,3-dihydro-1,4-benzodiazepine-2-thione]",7.19
15,"CC(C)[C@@H]1N=C(c2ccccc2)c2cc(Cl)ccc2NC1=S [Example 16, (3S)-7-chloro-3-isopropyl-5-phenyl-1,3-dihydro-1,4-benzodiazepine-2-thione]",7.15
16,"CC(C)[C@@H]1N=C(c2ccccc2)c2cc(C(F)(F)F)ccc2NC1=S [Example 18, (3S)-3-isopropyl-5-phenyl-7-(trifluoromethyl)-1,3-dihydro-1,4-benzodiazepine-2-thione]",7.15
17,"CC(C)[C@@H]1N=C(c2ccccc2)c2cc(-c3ccccc3)ccc2NC1=S [Example 19, (3S)-3-isopropyl-5,7-diphenyl-1,3-dihydro-1,4-benzodiazepine-2-thione]",5.83
18,"FC(F)(F)c1ccc2c(c1)C(C1CCCCC1)=NCC(=S)N2 [Example 20, 5-cyclohexyl-7-(trifluoromethyl)-1,3-dihydro-1,4-benzodiazepine-2-thione]",5.71
19,"CC(C)[C@@H]1N=C(c2cccc(Cl)c2)c2cc(Cl)ccc2NC1=S [Example 22, (3S)-7-chloro-5-(3-chlorophenyl)-3-isopropyl-1,3-dihydro-1,4-benzodiazepine-2-thione]",6.76

row,SMILES,pIC50
1,"CC(C)[C@@H]1N=C(c2ccccc2F)c2ccc(Cl)cc2NC1=S [Example 23, (3S)-8-chloro-5-(2-fluorophenyl)-3-isopropyl-1,3-dihydro-1,4-benzodiazepine-2-thione]",6.40
2,"S=C1Nc2ccc(Cl)cc2C(c2ccccc2)=N[C@H]1C1CC1 [Example 24, (3S)-7-chloro-3-cyclopropyl-5-phenyl-1,3-dihydro-1,4-benzodiazepine-2-thione]",6.78
3,"CC(C)[C@@H]1N=C(c2ccccc2)c2cc(OC(F)(F)F)ccc2NC1=S [Example 25, (3S)-3-isopropyl-5-phenyl-7-(trifluoromethoxy)-1,3-dihydro-1,4-benzodiazepine-2-thione]",6.63
4,"CC(C)(O)C1N=C(c2ccccc2)c2cc(Cl)ccc2NC1=S (stereo not shown) [Example 26, 7-chloro-3-(1-hydroxy-1-methyl-ethyl)-5-phenyl-1,3-dihydro-1,4-benzodiazepine-2-thione]",5.73
5,"CC(C)C[C@@H]1N=C(c2ccccc2F)c2cc(Cl)ccc2NC1=S [Example 27, (3S)-7-Chloro-5-(2-fluorophenyl)-3-isobutyl-1,3-dihydro-1,4-benzodiazepine-2-thione]",6.19
6,"S=C1Nc2ccccc2C(c2ccccc2)=NC1Cc1ccc(Cl)c(Cl)c1 (stereo not shown) [Example 28, 3-[(3,4-Dichlorophenyl)methyl]-5-phenyl-1,3-dihydro-1,4-benzodiazepine-2-thione]",5.78
7,"Fc1ccccc1C1=N[C@@H](c2ccccc2)C(=S)Nc2ccc(Cl)cc21 [Example 29, (3S)-7-Chloro-5-(2-fluorophenyl)-3-phenyl-1,3-dihydro-1,4-benzodiazepine-2-thione]",5.83
8,"S=C1Nc2ccc(Cl)cc2C(c2ccccc2)=NC1c1ccccc1 (stereo not shown) [Example 31, 7-chloro-3,5-diphenyl-1,3-dihydro-1,4-benzodiazepine-2-thione]",6.10
9,"CC(C)[C@@H]1N=C(c2cccnc2)c2cc(Br)ccc2NC1=S [Example 32, (3S)-7-bromo-3-isopropyl-5-(3-pyridyl)-1,3-dihydro-1,4-benzodiazepine-2-thione]",6.56
10,"CSCC[C@@H]1N=C(c2ccccc2)c2cc(Cl)ccc2NC1=S [Example 33, (3S)-7-chloro-3-(2-methylsulfanylethyl)-5-phenyl-1,3-dihydro-1,4-benzodiazepine-2-thione]",5.92
11,"CC(C)[C@H]1N=C(c2ccccc2F)c2cc(Cl)ccc2NC1=S [Example 34, (3R)-7-chloro-5-(2-fluorophenyl)-3-isopropyl-1,3-dihydro-1,4-benzodiazepine-2-thione]",6.38
12,"CC(C)[C@H]1N=C(c2ccccc2)c2cc(Cl)ccc2NC1=S [Example 35, (3R)-7-chloro-3-isopropyl-5-phenyl-1,3-dihydro-1,4-benzodiazepine-2-thione]",6.28
13,"CC(C)C[C@@H]1N=C(c2ccccc2)c2cc(Cl)ccc2NC1=S [Example 36, (S)-7-Chloro-3-isobutyl-5-phenyl-1,3-dihydro-benzo[e][1,4]diazepine-2-thione]",6.50
14,"CCC1N=C(c2ccccc2F)c2cc(N)ccc2NC1=S (stereo not shown) [Example 37, 7-amino-3-ethyl-5-(2-fluorophenyl)-1,3-dihydro-1,4-benzodiazepine-2-thione]",5.22
15,"COC(C)C1N=C(c2ccccc2)c2cc(Cl)ccc2NC1=S (stereo not shown) [Example 38, 7-chloro-3-(1-methoxyethyl)-5-phenyl-1,3-dihydro-1,4-benzodiazepine-2-thione]",6.45
16,"COc1ccc2c(c1)C(c1ccccc1)=N[C@@H](C(C)C)C(=S)N2 [Example 40, (3S)-3-isopropyl-7-methoxy-5-phenyl-1,3-dihydro-1,4-benzodiazepine-2-thione]",6.25
17,"CC1N=C(c2ccccc2)c2ccccc2NC1=S (stereo not shown) [Example 41, 3-methyl-5-phenyl-1,3-dihydro-1,4-benzodiazepine-2-thione]",6.26
18,CCC1CN(c2ccccc2)c2cc(Cl)ccc2NC1=S (stereo not shown) [Example 42],7.30

# Same assay, conditions: CHO human M1, with EC20 of acetylcholine, FLIPR; read-out: IC50 value hM1 (converted)
row,SMILES,IC50 [nM]
1,"CC(C)[C@@H]1N=C(c2ccc(F)cc2)c2cc(OC(F)(F)F)ccc2NC1=S [Example 1, (3S)-5-(4-fluorophenyl)-3-isopropyl-7-(trifluoromethoxy)-1,3-dihydro-1,4-benzodiazepine-2-thione]",312
2,"CCCC1=NCC(=S)Nc2ccc(Cl)cc21 [Example 17, 7-chloro-5-propyl-1,3-dihydro-1,4-benzodiazepine-2-thione]",1280
3,"CC(C)[C@@H]1N=C(C2CCCCC2)c2cc(Cl)ccc2NC1=S [Example 39, (3S)-7-chloro-5-cyclohexyl-3-isopropyl-1,3-dihydro-1,4-benzodiazepine-2-thione]",414
